What was measured:
[1] = tested on: HBT-39/w (breast cancer cells); test: 48 h incubation with the salts: cell fluorescence, living cells, multiplication coefficient (Table 2); type: cell-based, Human; settings: 48 hs, 50 mcg/ml
Protocol: (§1) New compounds of formula 1 were tested on cell lines. Use was made of 9 different neoplastic cell lines which were incubated for 48 hs with various new salts of protoporphyrin and with a new salt of the conventionally applied HpD preparation/hematoporphyrin derivatives/obtained according to Lipson et al. All compounds were used in the form of aqueous solutions, at a concentration of 50 mcg/ml. Determination was made of:
(§2) 1/ Cell fluorescence /F/: after 48 hs incubation, the cells were washed away, the intensity of fluorescence was measured in a fluorescence microscope and was expressed on an arbitrary scale of 0-4 scores;
(§3) 2/ Percentage of living cells /P %/ after 48 hs incubation;
(§4) 3/ Cell multiplication coefficient /M/ in the presence of different preparations, expressed as: [formula]

[2] = tested on: CL; test: 48 h incubation with the salts: cell fluorescence, living cells, multiplication coefficient (Table 1); type: cell-based; settings: 48 hs, 50 mcg/ml
Protocol: as §1, §2, §3, §4

[3] = tested on: MA-104 (Rhesus monkey embryo kidney cancer cells); test: as above; type: cell-based; settings: 48 hs, 50 mcg/ml
Protocol: as §1, §2, §3, §4

[4] = tested on: PZ; test: as above; type: cell-based; settings: 48 hs, 50 mcg/ml
Protocol: as §1, §2, §3, §4

[5] = tested on: KB (oral cavity cancer cells); test: 48 h incubation with the salts: cell fluorescence, living cells, multiplication coefficient (Table 2); type: cell-based, Human; settings: 48 hs, 50 mcg/ml
Protocol: as §1, §2, §3, §4
KB oral cavity cancer cells

[6] = tested on: Mm (Mm5MT/C1, mammary gland cancer cells of C3H-strain mice); test: 48 h incubation with the salts: cell fluorescence, living cells, multiplication coefficient (Table 3); type: cell-based, Murine; settings: for Cell fluorescence /F/ / Cell multiplication coefficient /M/ / Percentage of living cells /P %/: Mm, 48 hs, 50 mcg/ml
Protocol: as §1, §2, §3, §4
mammary gland cancer cells of C3H-strain mice

[7] = tested on: Hela (cervix uteri cancer cells); test: 48 h incubation with the salts: cell fluorescence, living cells, multiplication coefficient (Table 1); type: cell-based, Human; settings: 48 hs, 50 mcg/ml
Protocol: as §1, §2, §3, §4

[8] = tested on: HEp-2 (larynx cancer cells); test: 48 h incubation with the salts: cell fluorescence, living cells, multiplication coefficient (Table 3); type: cell-based, Human; settings: 48 hs, 50 mcg/ml
Protocol: as §1, §2, §3, §4
Hep-2 larynx cancer cells

[9] = tested on: GR (GRMT/F6, mammary gland cancer cells of GR-strain mice); test: 48 h incubation with the salts: cell fluorescence, living cells, multiplication coefficient (Table 2); type: cell-based, Murine; settings: 48 hs, 50 mcg/ml
Protocol: as §1, §2, §3, §4
GRMT/F6 mammary gland cancer cells of GR-strain mice

[10] = tested on: T-47D (breast cancer cells); test: 48 h incubation with the salts: cell fluorescence, living cells, multiplication coefficient (Table 3); type: cell-based, Human; settings: 48 hs, 50 mcg/ml
Protocol: as §1, §2, §3, §4
T-47D breast cancer cells

[11] = tested on: transplanted mammary gland cancer; test: survival of C3H mice with transplanted mammary gland cancer, with and without He-Ne laser irradiation (FIG. 6); type: in vivo; settings: 10 mg/kg body weight; with or without He-Ne laser 150 J/cm^2
Protocol: FIG. 6 is a graph showing the survival rate of C3H mice with transplanted mammary gland cancer after administration of compounds of the invention (with and without irradiation) and a control.
The new compounds were also studied in animals.
In animal studies, C3H mice with transplanted mammary gland cancer were administered both above-mentioned compounds in a dose of 10 mg/kg body weight, in two variants: mice irradiated with He-Ne laser in a dose of 150 J/cm^2 /in FIG. 6, marked by the letter L next to the symbol of the compound/and not irradiated ones. The results are recorded in the Figure.

Row | Compound | Cell fluorescence /F/ [1] | Cell multiplication coefficient /M/ [1] | Percentage of living cells /P %/ [1] [%] | Cell fluorescence /F/ [2] | Cell multiplication coefficient /M/ [2] | Percentage of living cells /P %/ [2] [%] | Cell fluorescence /F/ [3] | Cell multiplication coefficient /M/ [3] | Percentage of living cells /P %/ [3] [%] | Cell fluorescence /F/ [4] | Cell multiplication coefficient /M/ [4] | Percentage of living cells /P %/ [4] [%] | Cell fluorescence /F/ [5] | Cell multiplication coefficient /M/ [5] | Percentage of living cells /P %/ [5] [%] | Cell fluorescence /F/ [6] | Cell multiplication coefficient /M/ [6] | Percentage of living cells /P %/ [6] [%] | Cell fluorescence /F/ [7] | Cell multiplication coefficient /M/ [7] | other results
1 | l-arginine di/N-arginyl/-protoporphyrinate [PP/Arg/2 /Arg/2] | ++++ | 0,28 | 28 | ++ | 0,03 | 4 | ++ | 0,42 | 31 | + | 0,10 | 10 | + | 0,16 | 16 | +++ | 0,38 | 12 | ++++ | 0,28 | Percentage of living cells /P %/ [7]: 11%; Cell fluorescence /F/ [8]: +; Cell multiplication coefficient /M/ [8]: 0,14; Percentage of living cells /P %/ [8]: 5%; Cell fluorescence /F/ [9]: +++; Cell multiplication coefficient /M/ [9]: 0,12; Percentage of living cells /P %/ [9]: 12%; Cell fluorescence /F/ [10]: +++; Cell multiplication coefficient /M/ [10]: 0,40; Percentage of living cells /P %/ [10]: 40%
2 | CC1=C(CCC(=O)O)c2cc3[nH]c(cc4nc(cc5[nH]c(cc1n2)c(C(C)NC(CCCCN)C(=O)O)c5C)C(C(C)NC(CCCCN)C(=O)O)=C4C)c(C)c3CCC(=O)O.N=C(N)NCCC[C@H](N)C(=O)O.N=C(N)NCCC[C@H](N)C(=O)O (stereo not drawn) [PP/Lys/2 /Arg/2, l-arginine di/N-lysyl/-protoporphyrinate] | ++++ | 0,44 | 47 | + | 0,30 | 30 | - | 0,10 | 0 | + | 0,50 | 50 | - | 0,12 | 12 | ++ | 0,80 | 33 | +++ | 0,16 | mice survival [11]: most active, greatly prolonging mice survival; activity in studies of the Mm5MT/C1 cell line (in words) ([6]; mammary gland cancer of C3H mice): one of the most active ones; Percentage of living cells /P %/ [7]: 16%; Cell fluorescence /F/ [8]: ++; Cell multiplication coefficient /M/ [8]: 0,42; Percentage of living cells /P %/ [8]: 10%; Cell fluorescence /F/ [9]: +++; Cell multiplication coefficient /M/ [9]: 0,75; Percentage of living cells /P %/ [9]: 25%; Cell fluorescence /F/ [10]: ++; Cell multiplication coefficient /M/ [10]: 0,92; Percentage of living cells /P %/ [10]: 57%
3 | CC1=C(CCC(=O)O)c2cc3[nH]c(cc4nc(cc5[nH]c(cc1n2)c(C(C)NC(CC(=O)O)C(=O)O)c5C)C(C(C)NC(CC(=O)O)C(=O)O)=C4C)c(C)c3CCC(=O)O.N=C(N)NCCC[C@H](N)C(=O)O.N=C(N)NCCC[C@H](N)C(=O)O (stereo not drawn) [PP/Asp/2 /Arg/2, l-arginine di/N-aspartyl/-protoporphyrinate] | +++ | 0,81 | 48 | + | 0,55 | 55 | +++ | 0,52 | 17 | + | 0,15 | 14 | ++ | 0,12 | 16 | +++ | 0,92 | 70 | +++ | 0,50 | Percentage of living cells /P %/ [7]: 38%; Cell fluorescence /F/ [8]: ++++; Cell multiplication coefficient /M/ [8]: 0,40; Percentage of living cells /P %/ [8]: 47%; Cell fluorescence /F/ [9]: ++; Cell multiplication coefficient /M/ [9]: 0,73; Percentage of living cells /P %/ [9]: 25%; Cell fluorescence /F/ [10]: ++++; Cell multiplication coefficient /M/ [10]: 0,92; Percentage of living cells /P %/ [10]: 65%
4 | CC1=C(CCC(=O)O)c2cc3[nH]c(cc4nc(cc5[nH]c(cc1n2)c(C(C)NC(CS)C(=O)O)c5C)C(C(C)NC(CS)C(=O)O)=C4C)c(C)c3CCC(=O)O.N=C(N)NCCC[C@H](N)C(=O)O.N=C(N)NCCC[C@H](N)C(=O)O (stereo not drawn) [PP/Cys/2 /Arg/2, l-arginine di/N-cysteyl/-protoporphyrinate] | + | 0,53 | 42 | - | 0,30 | 30 | ++ | 0,16 | 11 | + | 0,40 | 40 | + | 0,12 | 12 | +++ | 0,73 | 40 | ++ | 0,43 | Percentage of living cells /P %/ [7]: 55%; Cell fluorescence /F/ [8]: ++++; Cell multiplication coefficient /M/ [8]: 0,32; Percentage of living cells /P %/ [8]: 60%; Cell fluorescence /F/ [9]: +++; Cell multiplication coefficient /M/ [9]: 0,75; Percentage of living cells /P %/ [9]: 50%; Cell fluorescence /F/ [10]: +; Cell multiplication coefficient /M/ [10]: 0,84; Percentage of living cells /P %/ [10]: 26%

Source: US5451599A, “Complex salts of hematoporphyrin and of its derivatives, their synthesis, and therapeutic agent” (Wojskowa Akademia Techniczna im. Jaroslawa Dabrowskiego, priority 1991, dated 1995)
